We go through 36 compounds from ChEMBL document CHEMBL1155463 (J Med Chem, 2010).

Data set [1] in a line: physchem.
Description: Ionization constant, pKa by spectrophotometry
Data set [2] is described as follows: physchem. To be noted: octanol/water.
Description: Lipophilicity, log P of the compound
The nature of data set [3]: physchem. To be noted: octanol/water, pH 7.4.
Data set [4] in a line: physchem. To be noted: phosphate buffer, pH 9.9.
Description: Thermodynamic solubility in 50 mM aqueous phosphate buffer of pH 9.9 at 22.5 degC by HPLC analysis
Data set [5] in a line: physchem. To be noted: aqueous solution, pH 1.
Description: Chemical stability in aqueous solution at pH 1 after 2 hrs

Values after ≈ are worked out from the molar mass of the structure shown.

The pKa is the pH at which an ionisable group is half protonated. Turning to `CN(C)CCC(C)(C)Cc1ccc(C(C)(C)C)cc1`, the pKa in the data set “physchem [1]” came to 9.5.

Usually logP stands for the decadic logarithm of the partition coefficient of the neutral form, usually between octanol and water. The low end stands for lower lipophilicity, the high end for higher lipophilicity. Broadly, the logD is lipophilicity at a set pH, counting ionised and neutral species. A lower logD goes with lower lipophilicity. Broadly, the solubility (thermodynamic) is solubility found after equilibrating the solid with the medium. `O=C1CCCN(Cc2ccc3c(c2)OCO3)C1`: the logP in “physchem [2]” was 0.5. Also, the logD in the data set “physchem [3]” was determined as 0.1. In the data set “physchem [1]”, this compound returned a pKa of 7.6. Besides, in “physchem [4]”, the thermodynamic solubility stood at 9 mM (≈ 2100 µg/mL).

`CN(C)CC(C)(C)CCc1ccc(C(C)(C)C)cc1` yielded a thermodynamic solubility in the data set “physchem [4]” of 0.004 mM (≈ 1.05 µg/mL).

In the data set “physchem [2]”, `CC1(C)CCN1Cc1ccc2c(c1)OCO2` gave a logP of 2.8. The logD in “physchem [3]” came out at 0.1. Further, the pKa in the data set “physchem [1]” was 10.1. In “physchem [4]”, the solubility (thermodynamic) turned out to be 1.7 mM (≈ 373 µg/mL).

On to `c1cc2c(cc1CN1CCCC1)OCO2`, for which the logP in the data set “physchem [2]” was found to be 2.5. In the data set “physchem [3]”, this compound registered a logD of 0.2. In the data set “physchem [1]”, the pKa is 9.7. In “physchem [4]”, the thermodynamic solubility amounted to 2.8 mM (≈ 575 µg/mL).

For the compound `CN(C)CCCCc1ccc(C(C)(C)C)cc1`, the log partition coefficient (logP) in the data set “physchem [2]” is 5. This compound also displayed a solubility (thermodynamic) in the data set “physchem [4]” below 0.004 mM.

Take `c1cc2c(cc1CN1CCCC3(COC3)C1)OCO2`: in the data set “physchem [2]”, the logP came to 2.3. In “physchem [3]”, this compound returned a logD of 1.7. The compound further had a pKa in “physchem [1]” of 7.9. Also, the thermodynamic solubility in “physchem [4]” amounted to 7.7 mM (≈ 2010 µg/mL).

`CN(C)CCCC(C)(C)c1ccc(C(C)(C)C)cc1` displayed a thermodynamic solubility in the data set “physchem [4]” below 0.004 mM.

As for `c1cc2c(cc1CN1CCC3(COC3)C1)OCO2`, in “physchem [2]”, the logP was found to be 1.5. Besides, the logD in “physchem [3]” came to 0.7. In the data set “physchem [1]”, the pKa amounted to 8.1. Besides, the solubility (thermodynamic) in “physchem [4]” stood at 3 mM (≈ 742 µg/mL).

Regarding `c1cc2c(cc1CN1CCC13COC3)OCO2`, the logP in “physchem [2]” is 1.3. The compound also displayed a logD in the data set “physchem [3]” of 1.3. Besides, the pKa in the data set “physchem [1]” stood at 6.2. In addition, in “physchem [4]”, the solubility (thermodynamic) is 6 mM (≈ 1400 µg/mL).

With `CN(C)CCCCc1ccc(C2(O)COC2)cc1`, in “physchem [1]”, the pKa came to 9.6. In addition, in the data set “physchem [4]”, the solubility (thermodynamic) is 300 mM (≈ 74800 µg/mL).

In the data set “physchem [2]”, `O=C1CCN(Cc2ccc3c(c2)OCO3)C1` showed a logP of -0.1. The compound also came in with a logD in “physchem [3]” of 0.1. The same compound returned a pKa in “physchem [1]” of 6.1. Further, the solubility (thermodynamic) in “physchem [4]” stood at 19 mM (≈ 4170 µg/mL).

`O=C1CCN1Cc1ccc2c(c1)OCO2`: in “physchem [2]”, the logP turned out to be 1.1. Besides, the log distribution coefficient (logD) in “physchem [3]” came to 1.1. The compound further had a solubility (thermodynamic) in “physchem [4]” of 10 mM (≈ 2050 µg/mL).

In turn, `CC1(C)CCN(Cc2ccc3c(c2)OCO3)CC1` registered a logP in the data set “physchem [2]” of 4.4. Besides, the logD in the data set “physchem [3]” is 2.3. This compound also had a pKa in “physchem [1]” of 9.5. Moreover, the solubility (thermodynamic) in the data set “physchem [4]” came out at 0.89 mM (≈ 220 µg/mL).

In the data set “physchem [2]”, `O=C1CCCN1Cc1ccc2c(c1)OCO2` returned a logP of 1.2. Moreover, in the data set “physchem [3]”, the logD stood at 1.2. In “physchem [4]”, this compound gave a thermodynamic solubility of 6.8 mM (≈ 1490 µg/mL).

With `c1cc2c(cc1CN1CCC3(CC1)COC3)OCO2`, the logP in “physchem [2]” was determined as 2. The compound further returned a logD in the data set “physchem [3]” of 1. In “physchem [1]”, this compound returned a pKa of 8.3. In “physchem [4]”, this compound yielded a thermodynamic solubility of 5.4 mM (≈ 1410 µg/mL).

Turning to `CC1(C)CCCN(Cc2ccc3c(c2)OCO3)C1`, the logP in the data set “physchem [2]” worked out at 4.3. The logD in the data set “physchem [3]” turned out to be 2.3. Besides, the pKa in “physchem [1]” was 9.4. The same compound showed a thermodynamic solubility in “physchem [4]” of 0.053 mM (≈ 13.1 µg/mL).

For `CN(C)CCCCc1ccc(C2(C)COC2)cc1`, the logP in “physchem [2]” turned out to be 3.3. Further, the logD in the data set “physchem [3]” turned out to be 0.8. In the data set “physchem [1]”, this compound returned a pKa of 9.9. The solubility (thermodynamic) in “physchem [4]” came out at 18 mM (≈ 4450 µg/mL).

Turning to `c1cc2c(cc1CN1CCCCC1)OCO2`, the pKa in the data set “physchem [1]” was 9.6. The compound also yielded a solubility (thermodynamic) in “physchem [4]” of 2.1 mM (≈ 460 µg/mL).

With `CN(C)CCCC1(c2ccc(C(C)(C)C)cc2)COC1`, the logP in “physchem [2]” came to 3.9. The compound also had a logD in the data set “physchem [3]” of 1.7. The compound further yielded a pKa in “physchem [1]” of 9.6. Also, in “physchem [4]”, the thermodynamic solubility is 0.98 mM (≈ 270 µg/mL).

In the data set “physchem [2]”, `CN(C)CCCCc1ccc(C2(F)COC2)cc1` had a logP of 2. In “physchem [3]”, this compound registered a pH-dependent lipophilicity (logD) of -0.5. Besides, the pKa in “physchem [1]” came out at 9.9. The same compound had a thermodynamic solubility in “physchem [4]” of 24 mM (≈ 6030 µg/mL).

In turn, `c1cc2c(cc1CN1CCCC13COC3)OCO2` returned a logP in “physchem [2]” of 1.9. Further, the logD in the data set “physchem [3]” stood at 1.9. Moreover, in “physchem [1]”, the pKa amounted to 6.3. The same compound displayed a thermodynamic solubility in the data set “physchem [4]” of 8.5 mM (≈ 2100 µg/mL).

In turn, `c1cc2c(cc1CN1CCC1)OCO2` showed a logP in “physchem [2]” of 2.1. In “physchem [3]”, this compound registered a logD of -0.1. The compound further displayed a pKa in the data set “physchem [1]” of 9.5. The thermodynamic solubility in the data set “physchem [4]” was found to be 13 mM (≈ 2490 µg/mL).

`c1cc2c(cc1CN1CC3CC(C1)O3)OCO2` registered a pKa in the data set “physchem [1]” of 7.1. In “physchem [4]”, this compound had a solubility (thermodynamic) above 11 mM.

Consider `c1cc2c(cc1CN1CC3(COC3)C1)OCO2`, for which, in the data set “physchem [2]”, the logP was determined as 1.2. The logD in “physchem [3]” turned out to be 0.5. Moreover, the pKa in the data set “physchem [1]” was 8. Further, the thermodynamic solubility in “physchem [4]” was 100 mM (≈ 23300 µg/mL).

`CC1(C)CCCN1Cc1ccc2c(c1)OCO2` came in with a logP in “physchem [2]” of 3.5. Also, in “physchem [3]”, the logD was 0.9. Moreover, in the data set “physchem [1]”, the pKa worked out at 10. Besides, the solubility (thermodynamic) in the data set “physchem [4]” was 0.18 mM (≈ 42 µg/mL).

Compound `CC1(C)CCCCN1Cc1ccc2c(c1)OCO2` displayed a log partition coefficient (logP) in “physchem [2]” of 3.9. Besides, the logD in “physchem [3]” turned out to be 1.1. For the same compound, the pKa in the data set “physchem [1]” was found to be 10.2. In “physchem [4]”, this compound registered a thermodynamic solubility of 0.12 mM (≈ 29.7 µg/mL).

In “physchem [2]”, `CC1(C)CCN(Cc2ccc3c(c2)OCO3)C1` returned a log partition coefficient (logP) of 3.7. The compound also gave a log distribution coefficient (logD) in the data set “physchem [3]” of 1.4. In the data set “physchem [1]”, this compound displayed a pKa of 9.7. Besides, the solubility (thermodynamic) in the data set “physchem [4]” was 0.17 mM (≈ 39.7 µg/mL).

For `CN(C)C1(CCCc2ccc(C(C)(C)C)cc2)COC1`, the lipophilicity (logP) in “physchem [2]” is 3.6. For the same compound, in “physchem [3]”, the logD came to 3.3. Besides, the pKa in “physchem [1]” came to 7.2. The solubility (thermodynamic) in “physchem [4]” came out at 0.21 mM (≈ 57.8 µg/mL).

With `c1cc2c(cc1CN1CCCCC13COC3)OCO2`, the logP in the data set “physchem [2]” came out at 2.4. Besides, the logD in the data set “physchem [3]” was 2.2. Further, the pKa in the data set “physchem [1]” is 7. The solubility (thermodynamic) in “physchem [4]” was 2.9 mM (≈ 758 µg/mL).

`O=C1CCCCN1Cc1ccc2c(c1)OCO2` returned a logP in “physchem [2]” of 1.6. In addition, the logD in the data set “physchem [3]” amounted to 1.6. This compound yielded a thermodynamic solubility in “physchem [4]” of 27 mM (≈ 6300 µg/mL).

The compound `CCc1ccc(CCCCN(C)C)cc1` returned a logP in the data set “physchem [2]” of 4.3. The compound also registered a logD in “physchem [3]” of 1.8. The same compound gave a pKa in “physchem [1]” of 9.9. In the data set “physchem [4]”, the solubility (thermodynamic) stood at 0.25 mM (≈ 51.3 µg/mL).

In turn, `c1cc2c(cc1CN1CCOCC1)OCO2` registered a logP in “physchem [2]” of 1.6. This compound displayed a logD in “physchem [3]” of 1.5. In the data set “physchem [1]”, this compound displayed a pKa of 7. The compound also displayed a thermodynamic solubility in “physchem [4]” of 36 mM (≈ 7970 µg/mL).

What is called amount remaining is what is left of the initial amount, in per cent. Read a low amount remaining as a greater loss. `CN(C)CCCCc1ccc(C2COC2)cc1` showed a log partition coefficient (logP) in “physchem [2]” of 2.4. In addition, the fraction remaining at 2 h in “physchem [5]” was found to be 83%. The logD in “physchem [3]” is -0.1. The compound also returned a pKa in “physchem [1]” of 9.9. This compound registered a thermodynamic solubility in “physchem [4]” of 17 mM (≈ 3970 µg/mL).

The compound `CC1(C)CN(Cc2ccc3c(c2)OCO3)C1` gave a log partition coefficient (logP) in the data set “physchem [2]” of 3.1. In “physchem [3]”, this compound returned a logD of 0.8. The pKa in the data set “physchem [1]” was 9.6. Moreover, in “physchem [4]”, the thermodynamic solubility was determined as 1.3 mM (≈ 285 µg/mL).

Compound `CN(C)CCC1(Cc2ccc(C(C)(C)C)cc2)COC1` displayed a logP in the data set “physchem [2]” of 3.5. The logD in the data set “physchem [3]” amounted to 1.7. The compound also had a pKa in “physchem [1]” of 9.2. In the data set “physchem [4]”, the thermodynamic solubility was 15 mM (≈ 4130 µg/mL).
